Here are results for 92 molecules from PubChem BioAssay AID366 (MTDP, 2006).

Values joined by “and” are separate entries in the source; they are usually repeats but may differ in a detail not shown here. Identical values can stand only once. Active and inactive are the calls of the source. How the calls were made is not given here. A value given as a limit tells only on which side of the number the result lay.

Broadly, the IC50 is the concentration needed to halve the response being measured.

For this assay, the target named is Ribonuclease H1 (Homo sapiens) (UniProt O60930). Nature of the assay: human RNase H1 inhibitors, dose response, biochemical, FRET RNA/DNA duplex cleavage (AID 366).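 Further: potency is for inhibitors that lower RNA cleavage and so lower fluorescence.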 The following applies: fluorescence.
Ribonuclease H1 (Homo sapiens), sequence (O60930 whole entry, looked up): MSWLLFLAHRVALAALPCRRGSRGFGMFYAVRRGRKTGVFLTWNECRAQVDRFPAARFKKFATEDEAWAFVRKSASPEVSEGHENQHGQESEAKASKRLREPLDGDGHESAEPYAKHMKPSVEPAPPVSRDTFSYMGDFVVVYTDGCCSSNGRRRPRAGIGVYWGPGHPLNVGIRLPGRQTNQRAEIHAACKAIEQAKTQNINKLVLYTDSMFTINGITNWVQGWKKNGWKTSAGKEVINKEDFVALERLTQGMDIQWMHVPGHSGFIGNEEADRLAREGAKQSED
`CCOc1ccc(N2C(=O)/C(=C/c3ccc(I)o3)C(=O)NC2=S)cc1`: the IC50 is 2 µM.
With `N#Cc1c(NC(=O)C(F)(F)F)sc2c3c(=O)c4ccccc4c(=O)c=3oc3ccccc3c12` the entry was “inactive”; with `O=C1C=C/C(=N\S(=O)(=O)c2cc(Cl)ccc2Cl)C=C1Cl`, 1.6 µM.
For the molecule `Cc1ccc(C(=O)NC(=S)Nc2ccc(-c3nc4ccccc4s3)cc2)cc1[N+](=O)[O-]`, the IC50 was 0.8 µM.
Then `COc1ccccc1N=C(NOCc1ccc(Cl)cc1Cl)c1nonc1N`, with 8.8 µM; and `Cc1ccc(S(=O)(=O)N=C2C=CC(=O)C=C2)c(C)c1`, with 3.1 µM; and `Cc1ccc(-c2cc(C(=O)Nc3sc(C(=O)OC(C)C)c(C)c3C(N)=O)c3ccccc3n2)s1`, with 0.8 µM.
Then `O=C1c2cc([N+](=O)[O-])ccc2-c2ccc3c4ccc5c6c(ccc(c7ccc1c2c73)c64)C(=O)c1cc([N+](=O)[O-])ccc1-5`, with 0.4 µM; and `Cc1sc(NC(=O)c2ccco2)c(C(N)=O)c1C`, with “inactive”.
With `O=C(Cc1ccccc1Cl)c1ccc(O)c(O)c1O` the entry was “inactive”; with `C=CC1=C(C)C2=NC1=CC1=NC(=CC3=C(C)C4=C(O)C(C(=O)OC)C(=C5NC(=C2)C(C)C5CCC(=O)OC/C=C(\C)CCCC(C)CCCC(C)CCCC(C)C)C4=N3)C(CC)=C1C` (configuration not stated), > 100 µM (inactive).
In the case of `O=[N+]([O-])c1c(Cl)cccc1-c1c[nH]cc1Cl`, the IC50 was > 100 µM (inactive).
With `Oc1cc(O)c2c(c1)OC(c1ccc(O)c(O)c1)C(OC1(c3cc(O)c(O)c(O)c3)Oc3cc(O)cc(O)c3C(O)C1O)C2` (configuration not stated) the figure was 2.4 µM; with `C[C@H]1[C@H](O)c2c(c3c(c4c(-c5ccccc5)cc(=O)oc24)OC(C)(C)C=C3)O[C@@H]1C`, 9 µM; with `COc1ccc(C(=O)NC(=S)Nc2ccc3nn(-c4ccc(C)c(Cl)c4)nc3c2)cc1[N+](=O)[O-]`, 0.56 µM.
With `O=C1NN(c2ccc(I)cc2)C(=O)/C1=C\c1ccc(O)c(O)c1` the figure was 8.3 µM; with `O=C1C(Cl)=C/C(=N\S(=O)(=O)c2ccc(Cl)cc2)C(Cl)=C1Cl`, 4.6 µM.
With `C[C@@H]1Oc2c3c(c4c(-c5ccccc5)cc(=O)oc4c2C(=O)[C@H]1C)OC(C)(C)C=C3` the figure was 3.1 µM.
Turning to `Cc1cc(Cl)ccc1OCC(=O)Nc1sc(C)c(C)c1C(N)=O`, the IC50 is 4.3 µM.
With `Cc1ccc(S(=O)(=O)/N=C2\C=C(Sc3ncn[nH]3)C(=O)c3ccccc32)cc1` the figure was 9.2 µM; with `Nc1cc(S(N)(=O)=O)ccc1SSc1ccc(S(N)(=O)=O)cc1N`, “inactive”.
`O=C1C(Cl)=C/C(=N\S(=O)(=O)c2ccccc2)C(Cl)=C1Cl`: the IC50 is 4.1 µM.
On to `COc1cc(/C=N\c2sc3c(c2C(=O)NCc2ccccc2)CCCC3)cc(Cl)c1O`, for which the IC50 was 2 µM.
With `O=C1C(Cl)=C(Nc2ccc(S(=O)(=O)Nc3ccccn3)cc2)C(=O)c2ccccc21` the entry was “inactive”.
Then `O=C(O)C1Nc2c(Cl)cc(Cl)cc2C2C=CCC12` (configuration not stated), with 8.8 µM; and `CC(C)c1ccc(O)c(=O)cc1`, with “inactive”.
`CN(C)CN1CSC(=S)N(CN(C)C)C1`: the IC50 entry is “inactive”.
Then `COc1cc(C)cc2c(-c3c(O)cc(O)c4c3C[C@@H](C)N[C@@H]4C)cc(-c3cc(-c4c(O)cc(O)c5c4C[C@@H](C)N[C@@H]5C)c4cc(C)cc(OC)c4c3O)c(O)c12`, with 2 µM.
With `O=C1c2ccc(O)cc2C(=O)c2c1ccc(O)c2O` the figure was 7 µM.
Then `Cc1sc(NC(=O)c2ccc(Br)o2)c(C(N)=O)c1C`, with 5 µM; and `Cc1c(Cl)ccc2c1NC(C(=O)O)C1CC=CC21` (configuration not stated), with 2 µM; and `O=C1C=CC(=NS(=O)(=O)c2ccc(Cl)c([N+](=O)[O-])c2)C=C1`, with 2.1 µM.
Take `COc1ccc2oc(=O)c(-c3csc(Nc4ccc(Br)cc4)n3)cc2c1`: the IC50 is 0.9 µM.
Regarding `CCN1C(=O)/C(=C/c2ccoc2)C(=O)NC1=S`, the IC50 is > 100 µM (inactive).
With `O=S(=O)(O)c1cc(N=[N+]([O-])c2cc(S(=O)(=O)O)c3ccccc3c2)cc2ccccc12` the figure was 0.5 µM; with `O=C1/C(=C/c2ccc(O)c(O)c2)SC(=S)N1c1ccc(O)cc1`, 3.5 µM; with `O=C(N/N=C/c1ccccc1Cl)c1cc(O)c(O)c(O)c1`, “inactive”.
With `NC(=O)c1c(NC(=O)CCc2ccccc2)sc2c1CCCCCC2` the figure was 1.8 µM; with `O=C1c2ccccc2C(=O)N1c1ccc(-c2nc3ccc(N4C(=O)c5ccccc5C4=O)cc3[nH]2)cc1`, 0.54 µM.
Then `O=[N+]([O-])c1ccc(S(=O)(=O)Cc2ccccc2)c2nonc12`, with 5 µM; and `O=C1NC(=S)N(c2ccccc2F)C(=O)/C1=C/c1ccc(OCc2cccc(C(=O)O)c2)cc1`, with 9 µM.
As for `N#Cc1c(N)nc(SCC(=O)c2ccc(O)c(O)c2)c(C#N)c1-c1ccc(O)cc1`, the IC50 was 1.3 µM.
Then `Cc1nn(CC(=O)Nc2sc(C)c(C)c2C(N)=O)c(C)c1[N+](=O)[O-]`, with 6 µM; and `Cc1cc(-c2ccc(C=C3C(=O)NC(=S)NC3=O)o2)c([N+](=O)[O-])cc1C`, with 4 µM; and `O=C(Nc1sc2c(c1C(=O)Nc1cccc3ccccc13)CCCCC2)c1ccccc1F`, with 4.8 µM.
With `O=C(O)CCc1c2ccc(=O)c(O)c-2oc2c(O)c(O)ccc12` the figure was 0.07 µM; with `Cc1ccc(NC(=O)c2c(NC(=O)c3ccccc3F)sc3c2CCCCC3)cc1`, 0.32 µM; with `Cc1cc(O)c2c(c1O)C(=O)c1cccc(O)c1C2=O`, “inactive”.
Then `O=C(CSc1nc2ccccc2s1)c1sc2sc3ccccc3[n+]2c1[O-]`, with 0.3 µM.
Regarding `O=C1/C(=C\c2ccc(O)c(O)c2)SC(=S)N1c1cccc(Cl)c1`, the IC50 is 1.6 µM.
Turning to `Cc1ccc(C)n1-c1ccc(SCC(=O)O)cc1`, the IC50 was 1.2 µM.
With `Cc1sc(NC(=O)C2CC3CCC2C3)c(C(N)=O)c1C` (configuration not stated) the entry was “inactive”; with `COc1cc(-c2[o+]c3cc(O)cc(O)c3cc2O)cc(O)c1O`, 2.4 µM and 4 µM.
Then `FC(F)(F)c1nc2ccc(SSc3ccc4nc(C(F)(F)F)[nH]c4c3)cc2[nH]1`, with 1.7 µM; and `O=C(NC(=S)Nc1cc(-c2nc3ccccc3s2)ccc1Cl)c1ccc(F)cc1`, with 0.8 µM; and `C=C(C)[C@@H]1CCc2c(O)c(O)c(=O)cc(C)c2C1`, with 3.8 µM.
With `CCc1c(O)c2c(c(O)c1C(C)=O)C(=O)c1c(cc(O)c(C(=O)O)c1C(=O)O)C2=O` the figure was 3.6 µM; with `O=C1C=CC(=O)C(c2cc(Cl)ccc2Cl)=C1`, 3 µM.
As for `O=c1[nH]c2[nH]c(=S)[nH]c(=S)c2[nH]1`, the 50% inhibitory concentration (IC50) was 9 µM.
Then `O=C1c2ccccc2C(=O)c2c(O)c(O)cc(O)c21`, with 4.2 µM; and `O=c1c(O)cccc2cc(O)c(O)c(O)c12`, with 0.9 µM; and `N#C/C(=C\Nc1ccc(S(=O)(=O)Nc2nccs2)cc1)c1nc(-c2ccc(Cl)cc2)cs1`, with 0.5 µM.
Then `Cc1sc(NC(=O)c2cccc([N+](=O)[O-])c2)c(C(N)=O)c1C`, with 0.7 µM; and `CCCc1cc(=O)oc2c3c(c4c(c12)OC(C)(C)C=C4)O[C@@H](C)[C@H](C)[C@@H]3F`, with 6.8 µM; and `O=C1NC(=S)S/C1=C/c1cccc(OCc2ccc(Cl)c(Cl)c2)c1`, with 7.3 µM.
Regarding `O=C1c2ccccc2C(=O)c2c1cc(O)c(O)c2O`, the IC50 is 0.6 µM.
With `COc1ccc(/C=C\C(=O)c2c(-c3ccccc3)c3cc(C)ccc3[nH]c2=O)c(OC)c1` the figure was 8.4 µM.
Then `O=C1Nc2ccc(I)cc2C1(O)N1CCOCC1` (configuration not stated), with 0.4 µM.
With `Oc1c(Br)cc(/C=N/Nc2nnc3c(n2)[nH]c2ccccc23)c(Br)c1O` the figure was 0.3 µM.
As to `C[C@]12Cc3cnc(-c4ccccc4)nc3C[C@@H]1CC[C@@H]1[C@@H]2CC[C@@]2(C)[C@H]1CC[C@]2(C)O`, the 50% inhibitory concentration (IC50) is 2.8 µM.
With `CCCCCCCCCCCCCCCC(=O)OCC1OC(n2ccc(N)nc2=O)C(O)C1O` (configuration not stated) the figure was 0.6 µM; with `Cc1sc(NC(=O)C2CCCO2)c(C(N)=O)c1C` (configuration not stated), “inactive”.
Then `O=c1[nH]c(=S)n(-c2ccccc2F)c(O)c1C=C1C=CC=N1`, with 0.4 µM; and `COc1ccc(N2C(=O)/C(=C/c3ccc(I)o3)C(=O)NC2=S)cc1`, with 1.2 µM; and `Cc1cc(Br)ccc1N1C(=O)/C(=C/c2ccco2)C(=O)NC1=S`, with 0.8 µM.
Then `CC(C)=Cc1cc(CCC/C(C)=C/Cc2c(O)cc(C)c(C(=O)O)c2O)co1`, with 1.1 µM; and `Cc1ccc(S(=O)(=O)N=C2C=C(Cl)C(=O)C(Br)=C2)cc1`, with 4.7 µM.
Regarding `CCOc1ccc(NC(=O)c2c(NC(=O)c3ccco3)sc3c2CCCCC3)cc1`, the IC50 is 2.1 µM.
For `C=CCn1c(N)c(-c2nc3ccccc3[nH]2)sc1=S`, the IC50 result is “inactive”.
With `O=C(O)/C=C/c1c2ccc(=O)c(O)c-2oc2c(O)c(O)ccc12` the figure was 0.05 µM; with `O=C1NC(=S)N(c2ccccc2F)C(=O)C1=Cc1ccco1`, 0.2 µM.
With `C=C(CCC(C(=O)O)C1CCC2(C)C3=C(CCC12C)C1(C)CCC(O)C(C)(C)C1CC3)C(C)C` (configuration not stated) the figure was 4.8 µM; with `CC(=O)/C=C/C=C/c1ccc2c(c1)OC(CO)C(c1ccc(O)c(O)c1)O2` (configuration not stated), 6 µM; with `O=C1C=CC(=O)c2c(O)cccc21`, 0.5 µM.
Then `O=C1NC(=S)N(c2ccc(Cl)cc2)C(=O)/C1=C\C=C\c1ccccc1[N+](=O)[O-]`, with 7 µM; and `Cc1ccc(-c2c(C#N)c(SCC(=O)c3ccc(O)c(O)c3)nc3c2CCCC3)o1`, with 1.5 µM; and `COC(=O)c1c(N)sc(C(=O)Nc2ccc(OC)cc2)c1C`, with “inactive”.
Turning to `O=C1C(Cl)=CC(=NS(=O)(=O)c2ccccc2)C=C1Cl`, the IC50 is 4.3 µM.
With `COc1ccc(C2COc3cc(O)c(O)cc3C2)cc1` (configuration not stated) the figure was 2.8 µM; with `O=C1C=C(NCCc2cc(Br)c(O)c(Br)c2)C(=O)c2ncccc21`, 6.8 µM; with `Cc1ccc(N2C(=O)/C(=C/c3ccc(O)c(O)c3)SC2=S)cc1C`, 4 µM.
Then `CC(C)c1cccc(O)c(=O)c1`, with > 100 µM (inactive).
